Results on 1 compound are retold here after patent publication US9938316B2, “Selective inhibitors of α2 isoform of Na,K-ATPase and use thereof for reduction of intra-ocular pressure and as cardiotonic agents” (priority 2013, dated 2018).

Each structure is given as a SMILES string.

What all share (assay): biochemical
For experiment [1], the target named is T1, Na,K-ATPase α2β3 isoform complex (Homo sapiens, UniProt P50993).
T1 construct: made in house; host or cells: Pichia pastoris SMD1165
From the text:
(§1) Human β1, β2 and β3 were cloned into the pHIL-D2 expression vector containing the human α1 or α2. pHIL-D2 expression vectors containing porcine (p) α1, human (h) α1 or human α2 with Hisx10 tagged porcine β1 were previously generated (7, 9). Human β1 (Accession: P05026), human β2 (Accession: P14415) and human β3 (Accession: […]) cDNAs in pSD5 vector were a gift from K. Geering Univ. Lausanne Switzerland. The open reading frames and flanking regions of hβ1, hβ2 and hβ3 (in pSD5) were amplified separately by polymerase chain reaction (PCR) using synthetic primers containing BglII and SalI cleavage sites. Each one of the amplified fragments were digested with BglII and SalI and ligated to BglII and SalI treated plasmid pHIL-D2-(pα1/His10pβ1) to generate pHIL-D2 (pα1/His10hβ1or2or3). hβ1, hβ2 and hβ3 containing fragments were excised from pHIL-D2-(pα1/His10hβ1or2or3) and subcloned into pHIL-D2-(hα1/His10pβ1) or pHIL-D2-(hα2/His10pβ1) to produce pHIL-D2-(hα1/His10hβ1or2or3) and pHIL-D2-(hα2/His10hβ1or2or3). The newly created plasmids were analyzed for correct integration and correct sequence of the insert by restriction enzymatic digestions and sequencing. DNA of each construct was prepared in large quantities in E. coli XL-1 Blue for Pichia pastoris transformation.
(§2) Inhibition of Na,K-ATPase activity of the detergent-soluble α1β1, α2β1, and α3β1 complexes by CG's was determined as described (6) using either the αβ or αβFXYD1 complexes. […] The K0.5K was estimated by varying K concentration in a medium containing a fixed total K+choline chloride of 60 mM, and constant NaCl of 140 mM. Curves were fitted to the Hill function v=Vmax*[S]^n/([S]^n+K^n), where S is the K concentration, n is the Hill coefficient and K^n is K0.5K. For comparison of different curves the ratio v/Vmax for each curve was calculated and replotted. In experiments to assess inhibition of Na,K-ATPase activity by cardiac glycosides of the present invention, the percent inhibition VCG/V0 was calculated and Ki values were obtained by fitting the data to the function VCG/V0=Ki/([CG]+Ki)+ c. Inhibition was estimated in 3-8 separate experiments and average Ki values ±SEM were calculated. Significance of differences between Kiα1 and Kiα2 was calculated by the unpaired Student's t-test (p values). […] P values <0.05 were considered significant.

For experiment [2], the system named is Na,K-ATPase α2β2 isoform complex. The arrangement: species or system human. Conditions: ratio of Ki, Table 6.
Text: as §1, §2

Experiment [3] deals with Na,K-ATPase α2β3 isoform complex. The arrangement: species or system human. Conditions: ratio of Ki, Table 6.
Text: as §1, §2

Experiment [4] has as its target T2, Na,K-ATPase α2β2 isoform complex (Homo sapiens, UniProt P50993).
T2 construct: made in house; host or cells: Pichia pastoris SMD1165
Text: as §1, §2

With `CC1CN(C)CCC(OC2C(O)CC(OC3C(O)CC(OC4CCC5(C)C(CCC6C5CC(O)C5(C)C(C7=CC(=O)OC7)CCC65O)C4)OC3C)OC2C)O1` (stereo not shown) [DMe], the values for the inhibitory constant (Ki) in experiment [1] and in experiment [4] were 10.8 ± 0.6 nM and 20.4 ± 1.8 nM, respectively. Moreover, in experiment [2], the “Selectivity α1β1/α2/β2” value was 5.07. The “Selectivity α1β1/α2β3” value in experiment [3] turned out to be 9.5.

A word on the Ki: it is a measure of affinity in units of concentration, obtained from inhibition or displacement. Read a high Ki as a looser hold on the target.
